Assay results taken from ChEMBL document CHEMBL5584321, “Chemoenzymatic Synthesis of DNP-Functionalized FGFR1-Binding Peptides as Novel Peptidomimetic Immunotherapeutics for Treating Lung Cancer” (J Med Chem, 2024).
Active and inactive are the calls of the source. No cut-off for these calls is given here. Where a SMILES comes first, the peptide text is derived from it. The star is where a group is joined. X1 = O=[N+]([O-])c1ccc(OCCOCCOCCOCCOCCOCCN*)c([N+](=O)[O-])c1

What was measured:
[1] = Binding affinity to CM5 sensor chip immobilized human full-length wild type FGFR1c assessed as dissociation constant by SPR analysis
[2] = Hepatotoxicity in BALB/c mouse xenografted with human NCI-H1581 cells assessed as change in AST level at 20 mg/kg,SC administrated once daily for 12 days; assay type: toxicity, organism-based; conditions: in vivo, 288 h, time 12 day
[3] = Toxicity in BALB/c mouse xenografted with human NCI-H1581 cells assessed as inflammation in kidney at 20 mg/kg,SC administrated once daily for 12 days by hematoxylin and eosin staining based analysis; assay type: organism-based; conditions: in vivo, 288 h, time 12 day
L6 [4] = assay: Binding affinity to human full-length wild type FGFR1c stably expressed in rat L6 cells assessed as increase in green fluorescence signal incubated for 1 hr by Alexa-488 staining based confocal fluorescence microscopic analysis; assay type: cell-based
[5] = Toxicity in BALB/c mouse xenografted with human NCI-H1581 cells assessed as cell necrosis in heart at 20 mg/kg,SC administrated once daily for 12 days by hematoxylin and eosin staining based analysis; assay type: organism-based; conditions: in vivo, 288 h, time 12 day
[6] = Hepatotoxicity in BALB/c mouse xenografted with human NCI-H1581 cells assessed as change in ALT level at 20 mg/kg,SC administrated once daily for 12 days; assay type: toxicity, organism-based; conditions: in vivo, 288 h, time 12 day
[7] = Toxicity in BALB/c mouse xenografted with human NCI-H1581 cells assessed as change in kidney weight at 20 mg/kg,SC administrated once daily for 12 days; assay type: organism-based; conditions: in vivo, 288 h, time 12 day
L6 [8] = assay: Binding affinity to FGFR1c in rat L6 cells assessed as increase in green fluorescence signal incubated for 1 hr by Alexa-488 staining based confocal fluorescence microscopic analysis; assay type: cell-based
[9] = Toxicity in BALB/c mouse xenografted with human NCI-H1581 cells assessed as inflammation in lung at 20 mg/kg,SC administrated once daily for 12 days by hematoxylin and eosin staining based analysis; assay type: organism-based; conditions: in vivo, 288 h, time 12 day
[10] = Toxicity in BALB/c mouse xenografted with human NCI-H1581 cells assessed as change in lung weight at 20 mg/kg,SC administrated once daily for 12 days; assay type: organism-based; conditions: in vivo, 288 h, time 12 day
[11] = Tmax in immunized Sprague-Dawley rat at 1.5 mg/kg,SC administration measured upto 24 hrs by fluorescence based microplate reader assay; assay type: ADME, organism-based; conditions: in vivo
[12] = Toxicity in BALB/c mouse xenografted with human NCI-H1581 cells assessed as cell necrosis in spleen at 20 mg/kg,SC administrated once daily for 12 days by hematoxylin and eosin staining based analysis; assay type: organism-based; conditions: in vivo, 288 h, time 12 day
[13] = Toxicity in BALB/c mouse xenografted with human NCI-H1581 cells assessed as cell necrosis in lung at 20 mg/kg,SC administrated once daily for 12 days by hematoxylin and eosin staining based analysis; assay type: organism-based; conditions: in vivo, 288 h, time 12 day
NCI-H1581 [14] = assay: Binding affinity to FGFR1c in human NCI-H1581 cells assessed as fold change in fluorescence intensity at 10 uM by antibody recruiting based flow cytometry relative to Pep1; assay type: cell-based
L6 [15] = assay: Induction of apoptosis in FGF2-induced rat L6 cells stably expressing human full-length FGFR1c assessed as downregulation of BCL-2 expression at 50 uM incubated for 24 hrs by Western blotting analysis; assay type: functional, cell-based
[16] = AUC in immunized Sprague-Dawley rat at 1.5 mg/kg,SC administration measured upto 24 hrs by fluorescence based microplate reader assay; assay type: ADME, organism-based; conditions: in vivo
L6 [17] = assay: Induction of cell lysis in rat L6 cells at 1 uM incubated for 1 hr by complement dependent cytotoxicity based CCK-8 assay relative to control; assay type: functional
NCI-H1581 [18] = assay: Antitumor activity against human NCI-H1581 cells xenografted BALB/c mouse model assessed as inhibition of tumor growth at 20 mg/kg,SC administrated once daily for 12 days relative to control; assay type: functional; conditions: NCI-H1581, 288 h, time 12 day
[19] = Toxicity in BALB/c mouse xenografted with human NCI-H1581 cells assessed as cell necrosis in kidney at 20 mg/kg,SC administrated once daily for 12 days by hematoxylin and eosin staining based analysis; assay type: organism-based; conditions: in vivo, 288 h, time 12 day
L6 [20] = assay: Antiproliferative activity against FGF2-induced rat L6 cells stably expressing human full-length FGFR1c assessed as inhibition of cell growth at 100 uM incubated for 36 hrs by CCK-8 assay relative to control; assay type: functional
[21] = Toxicity in BALB/c mouse xenografted with human NCI-H1581 cells assessed as inflammation in heart at 20 mg/kg,SC administrated once daily for 12 days by hematoxylin and eosin staining based analysis; assay type: organism-based; conditions: in vivo, 288 h, time 12 day
[22] = Toxicity in BALB/c mouse xenografted with human NCI-H1581 cells assessed as inflammation in liver at 20 mg/kg,SC administrated once daily for 12 days by hematoxylin and eosin staining based analysis; assay type: organism-based; conditions: in vivo, 288 h, time 12 day
L6 [23] = assay: Binding affinity to human full-length wild type FGFR1c stably expressed in rat L6 cells assessed as fluorescence intensity at 10 uM by antibody recruiting based flow cytometry; assay type: cell-based
[24] = Half life in immunized Sprague-Dawley rat at 1.5 mg/kg,SC administration measured upto 24 hrs by fluorescence based microplate reader assay; assay type: ADME, organism-based; conditions: in vivo
[25] = Renal toxicity in BALB/c mouse xenografted with human NCI-H1581 cells assessed as change in urea level at 20 mg/kg,SC administrated once daily for 12 days; assay type: organism-based; conditions: in vivo, 288 h, time 12 day
L6 [26] = assay: Induction of apoptosis in FGF2-induced rat L6 cells stably expressing human full-length FGFR1c assessed as upregulation of cleaved PARP expression at 50 uM incubated for 24 hrs by Western blotting analysis; assay type: functional, cell-based
L6 [27] = assay: Induction of apoptosis in FGF2-induced rat L6 cells stably expressing human full-length FGFR1c assessed as upregulation of cleaved caspase-3 expression at 50 uM incubated for 24 hrs by Western blotting analysis; assay type: functional, cell-based
NCI-H1581 [28] = assay: Binding affinity to FGFR1c in human NCI-H1581 cells assessed as increase in fluorescence signal by antibody recruiting based flow cytometry; assay type: cell-based
[29] = Toxicity in BALB/c mouse xenografted with human NCI-H1581 cells assessed as change in heart weight at 20 mg/kg,SC administrated once daily for 12 days; assay type: organism-based; conditions: in vivo, 288 h, time 12 day
NCI-H1581 [30] = assay: Antitumor activity against human NCI-H1581 cells xenografted BALB/c mouse model assessed as tumor necrosis at 20 mg/kg,SC administrated once daily for 12 days by hematoxylin and eosin staining based analysis; assay type: functional, organism-based; conditions: time 12.0 day
[31] = Cmax in immunized Sprague-Dawley rat at 1.5 mg/kg,SC administration measured upto 24 hrs by fluorescence based microplate reader assay; assay type: ADME, organism-based; conditions: in vivo
[32] = Toxicity in BALB/c mouse xenografted with human NCI-H1581 cells assessed as cell necrosis in liver at 20 mg/kg,SC administrated once daily for 12 days by hematoxylin and eosin staining based analysis; assay type: organism-based; conditions: in vivo, 288 h, time 12 day
NCI-H1581 [33] = assay: Binding affinity to FGFR1c in human NCI-H1581 cells assessed as fluorescence intensity at 10 uM by antibody recruiting based flow cytometry; assay type: cell-based
NCI-H1581 [34] = assay: Induction of cell lysis in human NCI-H1581 cells at 1 uM incubated for 1 hr by complement dependent cytotoxicity based CCK-8 assay relative to control; assay type: functional
[35] = Renal toxicity in BALB/c mouse xenografted with human NCI-H1581 cells assessed as change in creatinine level at 20 mg/kg,SC administrated once daily for 12 days; assay type: organism-based; conditions: in vivo, 288 h, time 12 day
[36] = Toxicity in BALB/c mouse xenografted with human NCI-H1581 cells assessed as inflammation in spleen at 20 mg/kg,SC administrated once daily for 12 days by hematoxylin and eosin staining based analysis; assay type: organism-based; conditions: in vivo, 288 h, time 12 day

In the case of `CC(C)C[C@H](NC(=O)[C@H](C)NC(=O)[C@@H](NC(=O)[C@H](Cc1ccc(O)cc1)NC(=O)[C@H](Cc1c[nH]c2ccccc12)NC(=O)[C@H](CO)NC(=O)[C@H](CO)NC(=O)[C@H](Cc1ccc(O)cc1)NC(=O)[C@H](CCCCN)NC(=O)[C@H](CCCNC(=N)N)NC(=O)[C@H](CO)NC(=O)[C@H](CCCNC(=N)N)NC(=O)[C@@H](N)Cc1ccc(O)cc1)C(C)C)C(=O)N[C@@H](CCCCN)C(=O)N[C@@H](CCCNC(=N)N)C(=O)N[C@@H](CC(C)C)C(=O)N1CCC[C@H]1C(=O)N[C@@H](CCC(=O)O)C(=O)N[C@H](C(=O)NCC(=O)NCC(=O)NCC(=O)NCCOCCOCCOCCOCCOCCOc1ccc([N+](=O)[O-])cc1[N+](=O)[O-])[C@@H](C)O` (H-YRSRKYSSWYVALKRLPETGGG-X1), the Kd [1] is reported as 5.01 µM, the Activity [2] is reported as “Non-Toxic” and the Activity [3] is reported as “Non-Toxic”. For the same compound, the Activity (L6 [4]) was “Active”, the Activity [5] was “Non-Toxic” and the Activity [6] was “Non-Toxic”. The Activity [7] was “Non-Toxic”, the Activity (L6 [8]) was “inactive” and the Activity [9] was “Non-Toxic”. The Activity [10] was “Non-Toxic”, the Tmax [11] was 1.67 h and the Activity [12] was “Non-Toxic”. The Activity [13] was “Non-Toxic”, the fold change (FC) (NCI-H1581 [14]) was 36 and the Activity (L6 [15]) was “Active”. The AUC at 24 h [16] was 2600 ng·h/mL, the Activity (L6 [17]) was “inactive” and the inhibition in vivo at 20 mg/kg (NCI-H1581 [18]) was 72.7%. For the same compound, the Activity [19] was “Non-Toxic”, the inhibition at 100 µM (L6 [20]) was 100% and the Activity [21] was “Non-Toxic”. The Activity [22] was “Non-Toxic”, the Flu intensity (L6 [23]) was 1.8 10^4No_unit and the half-life [24] was 18.1 h. The Activity [25] was “Non-Toxic”, the Activity (L6 [26]) was “Active” and the Activity (L6 [27]) was “Active”. For the same compound, the Activity (NCI-H1581 [28]) was “Dose-Dependent Effect”, the Activity [29] was “Non-Toxic” and the Activity (NCI-H1581 [30]) was “Active”. The Cmax [31] was 273 ng/mL, the Activity [32] was “Non-Toxic” and the Flu intensity (NCI-H1581 [33]) was 5.7 10^3No_unit. The Activity (NCI-H1581 [34]) was 44.5%, the Activity [35] was “Non-Toxic” and the Activity [36] was “Non-Toxic”.
